# Measured values taken from patent US5366992A, “Benzoic acid substituted derivatives having cardiovascular activity” (Italfarmaco S.p.A., priority 1990, dated 1994).
# Structures can show the parent of a compound that is named as a salt.
# Columns and labels:
# [1] = system: noradrenaline-contracted rat aortha strip; experiment: in vitro vasorelaxing activity, noradrenaline-contracted rat aortha strip; settings: concentration inhibiting by 50% the contraction of noradrenaline-contracted rat aortha strip
# Protocol: The in vitro vasorelaxing activity of the compounds of the present invention was evaluated in the test of the noradrenaline-contracted rat aortha strip. The test was carried out according to the procedure described by K. Murakami et al., Eur. J. Pharmacol., 141, 195, 1987. The IC50 values, i.e. the concentration of active substance, expressed in mol/1, inhibiting by 50% the aortha strip contraction, were evaluated.
# [2] = system: Sprague Dawley anesthetized rats; experiment: in vivo antianginal activity, Arg-vasopressin-induced coronaric spasm (T wave increase) in anesthetized rats; design: species or system Sprague Dawley rat; settings: 3 mg/kg through gastric probe, one hour before i.v. Arg-vasopressin (1 I.U./kg)
# Protocol: In vivo antianginal activity was evaluated in Sprague Dawley anesthetized rats of 350-400 g mean weight, according to the procedure by M. Leitold et al., Arzneim. Forsch. 36, 1454, 1986. The test was carried out by intravenously administering to the animal one I.U./kg (equivalent to 3 mg/kg) of Arg-vasoprexine inducing a choronaric spasm which can be reproduced and electrocardiographically evidenced by an increase in the T wave. The compounds of the invention were administered through a gastric probe at a dose of 3 mg/kg, one hour before administering Arg-vasoprexine.The antianginal effect was expressed as percent inhibition of the increase in T wave versus controls.
Compound,IC50 [1],% Inhibition of the increase in T waves versus controls [2]
CC(=O)Oc1cccc(C(=O)NCCCCCO[N+](=O)[O-])c1 [3 B],1.2 µM,
"CC(=O)Oc1ccc(C(=O)NCCO[N+](=O)[O-])cc1 [Example 2, 4-Acetoxy-N-(2-nitroxyethyl)-benzamide]",2.3 µM,55%
CC(=O)Oc1ccccc1C(=O)NCCCCCO[N+](=O)[O-] [4 B],0.11 µM,53%
CC(=O)Oc1ccccc1C(=O)OCCO[N+](=O)[O-] [8 B],0.013 µM,61%
"O=C(NCCO[N+](=O)[O-])c1ccccc1OC(=O)C1CSCN1 (centres unmarked) [Example 9, N-(2-Nitroxyethyl)-2-[(4-thiazolidinyl)carbonyloxy]benzamide hydrochloride]",0.54 µM,
"CC(=O)Oc1cccc(C(=O)NCCO[N+](=O)[O-])c1 [Example 1, 3-Acetoxy-N-(2-nitroxyethyl)-benzamide]",0.16 µM,
O=C(NCCO[N+](=O)[O-])c1ccccc1O [9 A],0.16 µM,42%
